Data on 1 compound can be found in patent US11345695B2, “Substituted nicotinimide inhibitors of BTK and their preparation and use in the treatment of cancer, inflammation and autoimmune disease” (GUANGZHOU INNOCARE PHARMA TECH CO., LTD., priority 2013, dated 2022).

For this assay, the target named is BTK (Homo sapiens (Human), UniProt Q06187). Briefly: kinase-tagged phage / affinity bead competition binding screen (qPCR readout). As to conditions: BTK versus SRC. On the technique in general: Quantitative PCR measures a nucleic acid by following its amplification.
Sequence of BTK (Q06187 whole entry): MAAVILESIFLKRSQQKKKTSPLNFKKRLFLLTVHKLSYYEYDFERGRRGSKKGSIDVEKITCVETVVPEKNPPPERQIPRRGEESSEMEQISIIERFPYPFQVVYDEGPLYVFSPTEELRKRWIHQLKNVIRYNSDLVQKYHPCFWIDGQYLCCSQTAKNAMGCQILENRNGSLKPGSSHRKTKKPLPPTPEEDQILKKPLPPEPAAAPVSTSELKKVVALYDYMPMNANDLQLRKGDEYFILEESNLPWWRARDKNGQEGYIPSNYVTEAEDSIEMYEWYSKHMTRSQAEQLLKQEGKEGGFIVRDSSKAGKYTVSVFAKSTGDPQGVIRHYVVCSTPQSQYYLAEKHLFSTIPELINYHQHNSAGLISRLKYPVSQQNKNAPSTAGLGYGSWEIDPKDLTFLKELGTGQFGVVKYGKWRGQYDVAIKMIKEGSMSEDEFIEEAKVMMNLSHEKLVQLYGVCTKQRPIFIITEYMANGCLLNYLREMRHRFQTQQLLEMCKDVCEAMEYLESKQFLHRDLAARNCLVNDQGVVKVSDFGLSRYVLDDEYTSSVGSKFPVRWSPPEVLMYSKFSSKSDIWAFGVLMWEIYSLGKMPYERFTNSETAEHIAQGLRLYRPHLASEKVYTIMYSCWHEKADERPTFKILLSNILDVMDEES

On to `C=CC(=O)N1CCN(c2ccc(C(N)=O)c(-c3ccc(Oc4ccccc4)cc3)n2)CC1` [Example 5, 6-(4-acryloylpiperazin-1-yl)-2-(4-phenoxyphenyl)nicotinamide], for which the “Fold Difference” value is >100x.
